Reference: US7759345B2, “Antitumoral derivatives of ET-743” (priority 2001, dated 2010)
Like-named read-outs stand apart in the source and are kept apart here.

Key:
[1] = test system: MEL-28; assay: Inhibition of cell growth by counting cells, MEL-28; format: cell-based, human; conditions: read-out: IC50 (molar) MEL-28
Protocol: (§1) 1°.—Inhibition of Cell Growth by Counting Cells.
(§2) This form of the assay employs 24 well multidishes of 16 mm diameter (Bergeron, 1984; Schroeder, 1981). The tumor cell lines employed are: P-388 (ATCC CCL 46), suspension culture of a lymphoid neoplasm from a DBA/2 mouse; A-549 (ATCC CCL 185), monolayer culture of a human lung carcinoma; HT-29 (ATCC HTB-38), monolayer culture of a human colon carcinoma; MEL-28 (ATCC HTB-72), monolayer culture of a human melanoma and DU-145 (ATCC HTB-81), monolayer culture of a human prostate carcinoma.
(§3) Cells were maintained, in logarithmic phase of growth in Eagle's Minimum Essential Medium, with Earle's Balanced Salts, with non-essential amino acids, with 2.0 mM L-Glutamine, without sodium bicarbonate (EMEM/neaa), supplemented with 10% Fetal Calf Serum (FCS), 10^−2 M. sodium bicarbonate and 0.1 U/l penicillin G+0.1 g/l streptomycin sulfate. For the experiments, cells are harvested from subconfluent cultures using trypsin and resuspended in fresh medium before plating.
(§4) A-549, HT-29, MEL-28 and DU-145 cells were seeded into 16 mm diameter wells at 1×10^4 cells per well in 1 ml aliquots of EMEM 5% FCS containing different concentrations of the sample to be tested. A separate set of cultures without drug was seeded as control of growth, to ensure that cells remained in exponential phase of growth. All determinations are carrying out in duplicate. After three days of incubation at 37° C., 5% CO2 in a 98% humid atmosphere cells were stained with 0.1% crystal violet. An approximately IC50 was determined by comparing the growth in wells with drug to the growth in wells control.
(§5) For quantifying the activity, after the incubation time, cells are trypsinized and counted in a Coulter Counter ZM. All counts (net cells per well), represent the average of duplicate wells. % G, percent of growth relative to cultures without drug. The results of these assays are used to generate dose-response curves from which more precise IC50 values are determined (sample concentration which produces 50% cell growth inhibition).
(§6) Obtained results may predict the usefulness of a certain drug as a potential cancer treatment. For this technique, compounds which show IC50 values smaller than 1 μg/ml are selected to continue with further studies. IC50's data allow to predict that not only could a drug be cystostatic, but also it could have a potential in terms of tumor reduction.

[2] = test system: DU-145; assay: Inhibition of cell growth by counting cells, DU-145; format: cell-based, human; conditions: read-out: IC50 (molar) DU-145
Protocol: as §1, §2, §3, §4, §5, §6

[3] = test system: P-388; assay: Inhibition of cell growth by counting cells, P-388; format: cell-based, mouse; conditions: read-out: IC50 (molar) P-388
Protocol: as §1, §2, §3
P-388 cells were seeded into 16 mm diameter wells at 1×10^4 cells per well in 1 ml aliquots of EMEM 5% FCS containing different concentrations of the sample to be tested. A separate set of cultures without drug was seeded as control of growth, to ensure that cells remained in exponential phase of growth. All determinations are carrying out in duplicate.
as §5, §6

[4] = test system: HT-29; assay: Inhibition of cell growth by counting cells, HT-29; format: cell-based, human; conditions: read-out: IC50 (molar) HT-29
Outline: (§7)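 Growth inhibition by direct cell counting: exponentially growing cells treated 3 days with compound at 37° C; IC50 derived from dose-response of net cells per well.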

[5] = test system: A-549; assay: Inhibition of cell growth by counting cells, A-549; format: cell-based, human; conditions: read-out: IC50 (molar) A-549
Outline: as §7

[6] = Homo sapiens, SK-MEL-28, 72 h, three days of incubation
[7] = Homo sapiens, DU-145, 72 h, three days of incubation
[8] = Mus musculus, P388, 72 h, three days of incubation
[9] = Homo sapiens, HT-29, 72 h, three days of incubation
[10] = Homo sapiens, A549, 72 h, three days of incubation

Structure (SMILES)	IC50 [1, 6] [nM]	IC50 [2, 7] [nM]	IC50 [3, 8] [nM]	IC50 [4, 9] [nM]	IC50 [5, 10] [nM]	other results
COc1cc2c(cc1OC(=O)C(F)(F)F)CCN[C@]21CS[C@@H]2c3c(OC(C)=O)c(C)c4c(c3[C@H](COC1=O)N1C2[C@H]2c3c(cc(C)c(OC)c3O)C[C@@H]([C@@H]1C#N)N2C)OCO4 (stereo partly shown) [Compound 3]	1.15	1.15	1.15	1.15	1.15	
COc1cc2c(cc1OC(=O)/C=C/c1ccccc1)CCN[C@]21CS[C@@H]2c3c(OC(C)=O)c(C)c4c(c3[C@H](COC1=O)N1C2[C@H]2c3c(cc(C)c(OC)c3OC(=O)OC(C)(C)C)C[C@@H]([C@@H]1C#N)N2C)OCO4 (stereo partly shown) [Compound 49]	0.999		0.999	0.999	0.999	IC50 ([2]; Homo sapiens, DU-145, 72 h): 0.999 nM
COc1cc2c(cc1O)CCN[C@]21CS[C@@H]2c3c(OC(=O)/C=C/c4ccccc4)c(C)c4c(c3[C@H](COC1=O)N1C2[C@H]2c3c(cc(C)c(OC)c3O)C[C@@H]([C@@H]1C#N)N2C)OCO4 (stereo partly shown) [Compound 137]	0.117	0.117	0.117	0.117	0.117	
CCCC(=O)Oc1cc2c(cc1OC)[C@@]1(CS[C@@H]3c4c(OC(C)=O)c(C)c5c(c4[C@H](COC1=O)N1C3[C@@H]3N[C@@H](Cc4cc(C)c(OC)c(O)c43)[C@@H]1C#N)OCO5)NCC2 (stereo partly shown) [Compound 203]	0.121	0.121	0.121	0.121	0.121	
CCCCCCCC(=O)Oc1c(C)c2c(c3c1[C@H]1SC[C@]4(NCCc5cc(OC(=O)OC(C)(C)C)c(OC)cc54)C(=O)OC[C@@H]3N3C1[C@H]1c4c(cc(C)c(OC)c4OC(=O)CCCCCCC)C[C@@H]([C@@H]3C#N)N1C)OCO2 (stereo partly shown) [Compound 120]	463	463	463	463	463	
CCCCCCCCCCCCCCCC(=O)Oc1c(C)c2c(c3c1[C@H]1SC[C@]4(NCCc5cc(O)c(OC)cc54)C(=O)OC[C@@H]3N3C1[C@H]1c4c(cc(C)c(OC)c4O)C[C@@H]([C@@H]3C#N)N1C)OCO2 (stereo partly shown) [Compound 146]	103	103	103	103	103	
CCCCCCCC(=O)Oc1cc2c(cc1OC)[C@@]1(CS[C@@H]3c4c(OC(C)=O)c(C)c5c(c4[C@H](COC1=O)N1C3[C@H]3c4c(cc(C)c(OC)c4OC(=O)CCCCCCC)C[C@@H]([C@@H]1C#N)N3C(=O)OC(C)(C)C)OCO5)NCC2 (stereo partly shown) [Compound 196]	9020	9020	9020	9020	9020	
COc1cc2c(cc1OC(C)=O)CCN[C@]21CS[C@@H]2c3c(OC(C)=O)c(C)c4c(c3[C@H](COC1=O)N1C2[C@@H]2N[C@@H](Cc3cc(C)c(OC)c(O)c32)[C@@H]1C#N)OCO4 (stereo partly shown) [Compound 202]	0.0625	0.0625	0.125	0.125	0.125	
COc1cc2c(cc1OC(=O)OC(C)(C)C)CCN[C@]21CS[C@@H]2c3c(OCc4ccccc4)c(C)c4c(c3[C@H](COC1=O)N1C2[C@H]2c3c(cc(C)c(OC)c3O)C[C@@H]([C@@H]1C#N)N2C)OCO4 (stereo partly shown) [Compound 134]						IC50 ([1]; Homo sapiens, SK-MEL-28, 72 h): 0.544 nM; IC50 ([2]; Homo sapiens, DU-145, 72 h): 0.544 nM; IC50 ([3]; Mus musculus, P388, 72 h): 0.544 nM; IC50 ([4]; Homo sapiens, HT-29, 72 h): 0.544 nM; IC50 ([5]; Homo sapiens, A549, 72 h): 0.544 nM
CCCCCCCC(=O)Oc1cc2c(cc1OC)[C@@]1(CS[C@@H]3c4c(OC(C)=O)c(C)c5c(c4[C@H](COC1=O)N1C3[C@H]3c4c(cc(C)c(OC)c4O)C[C@@H]([C@@H]1C#N)N3C)OCO5)NCC2 (stereo partly shown) [Compound 14]						IC50 ([1]; three days of incubation): 1.11 nM; IC50 ([2]; three days of incubation): 1.11 nM; IC50 ([3]; three days of incubation): 1.11 nM; IC50 ([4]; three days of incubation): 1.11 nM; IC50 ([5]; three days of incubation): 1.11 nM
COc1cc2c(cc1OC(=O)/C=C/c1ccccc1)CCN[C@]21CS[C@@H]2c3c(OC(C)=O)c(C)c4c(c3[C@H](COC1=O)N1C2[C@H]2c3c(cc(C)c(OC)c3O)C[C@@H]([C@@H]1C#N)N2C)OCO4 (stereo partly shown) [Compound 8]	0.111		0.111	0.556	0.111	IC50 ([2]; Homo sapiens, DU-145, 72 h): 0.556 nM
COc1cc2c(cc1OC(=O)OC(C)(C)C)CCN[C@]21CS[C@@H]2c3c(OC(C)=O)c(C)c4c(c3[C@H](COC1=O)N1C2[C@H]2c3c(cc(C)c(OC)c3O)C[C@@H]([C@@H]1O)N2C)OCO4 (stereo partly shown) [Compound 66]	0.116	0.116	0.116	0.116	0.116	
CCCCCCCCCCCCCCCC(=O)Oc1cc2c(cc1OC)[C@@]1(CS[C@@H]3c4c(OC(C)=O)c(C)c5c(c4[C@H](COC1=O)N1C3[C@H]3c4c(cc(C)c(OC)c4OC(=O)CCCCCCCCCCCCCCC)C[C@@H]([C@@H]1C#N)N3C(=O)OC(C)(C)C)OCO5)NCC2 (stereo partly shown) [Compound 198]	7500	7500	7500	7500	7500	
COc1cc2c(cc1OC(=O)OC(C)(C)C)CCN[C@]21CS[C@@H]2c3c(OCc4ccccc4)c(C)c4c(c3[C@H](COC1=O)N1C2[C@H]2c3c(cc(C)c(OC)c3OCc3ccccc3)C[C@@H]([C@@H]1C#N)N2C)OCO4 (stereo partly shown) [Compound 135]						IC50 ([1]; Homo sapiens, SK-MEL-28, 72 h): 4.96 nM; IC50 ([2]; Homo sapiens, DU-145, 72 h): 4.96 nM; IC50 ([3]; Mus musculus, P388, 72 h): 4.96 nM; IC50 ([4]; Homo sapiens, HT-29, 72 h): 4.96 nM; IC50 ([5]; Homo sapiens, A549, 72 h): 4.96 nM
CCCCCCCC(=O)Oc1cc2c(cc1OC)[C@@]1(CS[C@@H]3c4c(OC(C)=O)c(C)c5c(c4[C@H](COC1=O)N1C3[C@@H]3N[C@@H](Cc4cc(C)c(OC)c(O)c43)[C@@H]1C#N)OCO5)NCC2 (stereo partly shown) [Compound 205]	0.113	0.113	0.113	0.113	0.113	
COc1cc2c(cc1OC(=O)OC(C)(C)C)CCN[C@]21CS[C@@H]2c3c(OC(C)=O)c(C)c4c(c3[C@H](COC1=O)N1C2[C@H]2c3c(cc(C)c(OC)c3OC(=O)OC(C)(C)C)C[C@@H]([C@@H]1C#N)N2C)OCO4 (stereo partly shown) [Compound 5]	0.515	0.515	0.515	0.515	0.515	
COc1cc2c(cc1OCc1ccccc1)CCN[C@]21CS[C@@H]2c3c(OC(C)=O)c(C)c4c(c3[C@H](COC1=O)N1C2[C@H]2c3c(cc(C)c(OC)c3OCc3ccccc3)C[C@@H]([C@@H]1O)N2C)OCO4 (stereo partly shown) [Compound 91]	106	106	106	106	106	
COc1cc2c(cc1O)CCN[C@]21CS[C@@H]2c3c(OC(=O)C(F)(F)F)c(C)c4c(c3[C@H](COC1=O)N1C2[C@H]2c3c(cc(C)c(OC)c3O)C[C@@H]([C@@H]1C#N)N2C)OCO4 (stereo partly shown) [Compound 159]	1.37	1.37	1.37	1.37	1.37	
CCOc1cc2c(cc1OC)[C@@]1(CS[C@@H]3c4c(OC(C)=O)c(C)c5c(c4[C@H](COC1=O)N1C3[C@H]3c4c(cc(C)c(OC)c4OCC)C[C@@H]([C@@H]1O)N3C)OCO5)NCC2 (stereo partly shown) [Compound 88]	12.2	12.2	12.2	12.2	12.2	
COc1cc2c(cc1OCc1ccccc1)CCN[C@]21CS[C@@H]2c3c(OC(C)=O)c(C)c4c(c3[C@H](COC1=O)N1C2[C@H]2c3c(cc(C)c(OC)c3OCc3ccccc3)C[C@@H]([C@@H]1C#N)N2C)OCO4 (stereo partly shown) [Compound 44]						IC50 ([1]; Homo sapiens, SK-MEL-28, 72 h): 105 nM; IC50 ([2]; Homo sapiens, DU-145, 72 h): 105 nM; IC50 ([3]; Mus musculus, P388, 72 h): 105 nM; IC50 ([4]; Homo sapiens, HT-29, 72 h): 105 nM; IC50 ([5]; Homo sapiens, A549, 72 h): 105 nM
